According to PubChem BioAssay (NCI):
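Each compound was tested at five concentrations against cells in 96-well plates for 48 hours. GI50: concentration for 50% inhibition of growth. TGI denotes the concentration required for complete inhibition of growth.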

Key:
Test in all cases: NCI-60 cell line screen, 48 h
[1] = tested on: HT29 colon
[2] = tested on: KM12 colon
[3] = tested on: NCI-H522 lung
[4] = tested on: PC-3 prostate
[5] = tested on: SF-268 CNS
[6] = tested on: SF-295 CNS
[7] = tested on: SW-620 colon
[8] = tested on: U251 CNS

Row | Structure (SMILES) | TGI [1] [µM] | TGI [2] [µM] | TGI [3] [µM] | TGI [4] [µM] | TGI [5] [µM] | TGI [6] [µM] | TGI [7] [µM] | TGI [8] [µM] | GI50 [1] [µM] | GI50 [2] [µM] | GI50 [3] [µM] | GI50 [4] [µM] | GI50 [5] [µM] | GI50 [6] [µM] | GI50 [7] [µM] | GI50 [8] [µM]
1 | C=CC1(C)CCC2C(=CCC3C2(C)CC(O)C(O)C3(C)COC2OC(CO)C(O)C(O)C2O)C1 (configuration not stated) | > 100 | > 100 | > 100 | > 100 | > 100 | > 100 | > 100 | > 100 |  |  |  |  |  |  |  | 
2 | COC(=O)[C@@H](C)C[C@H](Cc1ccccc1)NC(=O)c1nc([C@@H](C[C@H](C(C)C)N(C)C(=O)[C@@H](NC(=O)[C@H]2C[C@H](O)CCN2C)C(C)C)OC(C)=O)sc1C(C)C | > 3.99 | > 3.95 |  | > 11.1 | > 11.1 | > 11.1 | > 11.1 | > 11.1 | 0.00377 | 0.00473 | 0.00186 | 0.00391 | 0.00957 | 0.0164 | 0.00533 | 0.0075
3 | O=C(O)c1ccc(N(/C=C/C(=O)C(F)(F)F)Cc2ccc(Cl)cc2)cc1 | > 100 | 59.9 | 61.9 | > 100 | > 100 | 67 | > 100 | 86.7 | 37 | 23.2 | 19.9 | 37.9 | > 100 | 26.6 | 35.9 | 26.2
4 | CC1=C(CCCOC(=O)[C@H](N)CC(C)C)C2=C(C)C3(CC3)[C@@](C)(O)C(=O)C2=C1 | 6.02 | > 100 | 11.1 | 44.1 | > 47.2 | > 31.2 | > 84 | 13.7 | 2.22 | 7.66 | 2.69 | 2.43 | 0.736 | 2.19 | 19.6 | 2.53
5 | C[C@@H]1CN2[C@H]3[C@@H]1CC[C@]31CCC(=O)O[C@]1(C)[C@H]1CC[C@H]3CCC=C3[C@@H]12 | > 30 | > 30 | > 30 | > 30 | > 30 | > 30 | > 30 | > 30 | > 30 | > 30 | > 30 | > 30 | > 30 | > 30 | > 30 | > 30
6 | CC(=O)/C(=C\c1ccc(Cl)cc1)c1ccccc1 | > 61.7 | > 100 | 3.26 | > 100 | > 100 | > 100 | > 64.6 | > 100 | 0.14 | 0.054 | 0.0745 | 0.0852 | 0.201 | 0.054 | 0.0445 | 0.0842
